The source of these data is US20070274923A1, “Non-invasive real-time in vivo bioluminescence imaging of local Ca2+ dynamics in living organisms” (priority 2005, published 2007).

One experiment deals with cortical neurons. As to the kind of experiment: Single-cell bioluminescence imaging of transfected cortical neurons. The following applies: cortical neurons with non-targeted GA reconstituted with h coelenterazine. In kind it is cell-based. The procedure: Cultures were plated on to glass-bottomed dishes and mounted to a stage adapter on a fully automated inverted microscope mounted in a black-box. GFP-Aequorin was reconstituted with 2.5-5 μM coelenterazine for 30 minutes at 37° C. Incubation of cells with coelenterazine that had been transfected with SynGA was undertaken at room temperature to reduce the consumption of the photoprotein during the reconstitution process. Cells were perfused with tyrodes buffer. Prior to bath application of NMDA, cells were perfused for 1 minute without Mg^2+. All recordings were made at room temperature (22-25° C.). […]
The fluorescence/bioluminescence wide field microscopy system was custom built by ScienceWares, Inc. The system includes a fully automated inverted microscope (200M, Zeiss Germany) and is housed in a light-tight dark box. […] Low level light emission (photon rate<100 kHz), was collected using an Image Photon Detector (IPD 3, Photek Ltd.) connected to the baseport of the microscope, which assigns an X, Y coordinate and time point for each detected photon (Miller et al., 1994). The system is fully controlled by the data acquisition software, which also converts single photon events into an image that can be superimposed with brightfield or fluorescence images made by a connected CCD camera to the C-port (Coolsnap HQ, Roper Scientific). […]

For experiment [1], the system named is Ca^2+ oscillations in somatosensory cortex slices. The experiment in a line: Mitochondrial Ca2+ oscillations in organotypic somatosensory cortex slices of mtGA transgenic mice (bioluminescence imaging). Type of experiment: cell-based, mouse. The following applies: 50 μM; oscillations generated by removal of Mg2+ from buffer; slices of P4 mtGA mice.

As to `[Cl-].[K+]` [KCl], in the experiment with cortical neurons (90 mM), the “Ca2+-induced bioluminescence signal” value is on record as “robust signal”.
As for `N[C@H](CCCP(=O)(O)O)C(=O)O` [D-APV], the “effect on Ca2+ oscillations detected within the mitochondrial matrix” value in experiment [1] is “completely and reversibly blocked”.
Take `CN[C@H](CC(=O)O)C(=O)O` [NMDA]: the “Ca2+-induced bioluminescence signal” value in the experiment on cortical neurons (100 μM) is on record as “robust signal”.
